± gives the expanded uncertainty stated by the source.
Columns and labels:
[1] = refractive index (Na D-line) (dimensionless); conditions: 293.15 K; 101.33 kPa; Liquid; Standard Abbe refractometry
[2] = Liquid; for Normal boiling temperature: Ebulliometric method (Recirculating still); for mass density: 293.15 K, 101.33 kPa, Vibrating tube method

Row | Structure (SMILES) | refractive index [1] | Normal boiling temperature [2] | mass density [2]
1 | OCCO [1,2-ethanediol] | 1.4324 ± 0.0007 | 197.48 ± 0.2 °C | 
2 | CCCO [propan-1-ol] | 1.3865 ± 0.0007 | 97.30 ± 0.2 °C | 804.1 ± 2 kg/m3
3 | CC#N [acetonitrile] | 1.3445 ± 0.0007 | 81.50 ± 0.2 °C | 783.4 ± 2 kg/m3

Reference: the NIST ThermoML archive (doi:10.1016/j.jct.2013.08.011)
